Measurements: PubChem BioAssay AID1919005 (Molecular Pharmacology Branch, DTP, NCI, 2023)

Test system: 855422-203-R-J1-PDC complex spheroid growth
Test: Anticancer human tumor 855422-203-R-J1-PDC patient-derived bladder carcinoma cell line growth inhibition [AhR]
Details: for IC50: curve of first compound; for viability, T/C: stronger effect = lower value
In short: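 Agents were dosed in half-log steps down from roughly clinical Cmax, or from 10 microM where Cmax was unknown, alone and with AhR antagonists. Read-out: percent test/control growth of tumor spheroids containing HUVEC and MSC stromal cells.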

[1] = second compound 0.1 µM, first compound 0.0316 µM
[2] = second compound 0.1 µM, first compound 0.1 µM
[3] = second compound 0.1 µM, first compound 0.316 µM
[4] = second compound 0.1 µM, first compound 1 µM
[5] = second compound 0.1 µM, first compound 3.16 µM
[6] = second compound 0.1 µM, first compound 10 µM
[7] = second compound 0.316 µM, first compound 0.0316 µM
[8] = second compound 0.316 µM, first compound 0.1 µM
[9] = second compound 0.316 µM, first compound 0.316 µM
[10] = second compound 0.316 µM, first compound 1 µM
[11] = second compound 0.316 µM, first compound 3.16 µM
[12] = second compound 0.316 µM, first compound 10 µM
[13] = second compound 1 µM, first compound 0.0316 µM
[14] = second compound 1 µM, first compound 0.1 µM
[15] = second compound 1 µM, first compound 0.316 µM
[16] = second compound 1 µM, first compound 1 µM
[17] = second compound 1 µM, first compound 3.16 µM
[18] = second compound 1 µM, first compound 10 µM
[19] = second compound 3.16 µM, first compound 0.0316 µM
[20] = second compound 3.16 µM, first compound 0.1 µM
[21] = second compound 3.16 µM, first compound 0.316 µM
[22] = second compound 3.16 µM, first compound 1 µM
[23] = second compound 3.16 µM, first compound 3.16 µM
[24] = second compound 3.16 µM, first compound 10 µM
[25] = second compound 10 µM, first compound 0.0316 µM
[26] = second compound 10 µM, first compound 0.1 µM
[27] = second compound 10 µM, first compound 0.316 µM
[28] = second compound 10 µM, first compound 1 µM
[29] = second compound 10 µM, first compound 3.16 µM
[30] = second compound 10 µM, first compound 10 µM
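Note: spheroids exposed to agents for seven days before readout.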
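Throughout, for viability, T/C: percent of DMSO vehicle control luminescence viability.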

Row | IC50 (second compound 0.1 µM) | IC50 (second compound 0.316 µM) | IC50 (second compound 1 µM) | IC50 (second compound 3.16 µM) | IC50 (second compound 10 µM) | SMILES | viability, T/C [1] | viability, T/C [2] | viability, T/C [3] | viability, T/C [4] | viability, T/C [7] | viability, T/C [8] | viability, T/C [9] | viability, T/C [10] | viability, T/C [13] | viability, T/C [14] | viability, T/C [15] | viability, T/C [16] | viability, T/C [19] | viability, T/C [20] | viability, T/C [21] | further results
1 | > 10000 nM | > 10000 nM | > 10000 nM | > 10000 nM | < 31.6 nM | CC(C)c1c(-c2ccccc2)nc2c(C#N)c[nH]n2c1=O + Cc1cncc(-c2nc(NCCc3c[nH]c4ccccc34)c3ncn(C(C)C)c3n2)c1 | 112% | 91.1% | 104% | 95.9% | 90.1% | 97.2% | 83.8% | 82.5% | 82.7% | 92.1% | 90% | 74.3% | 78.6% | 87.2% | 84.1% | viability, T/C [5]: 94.2%; viability, T/C [6]: 78.8%; viability, T/C [11]: 75.4%; viability, T/C [12]: 78.1%; viability, T/C [17]: 76.4%; viability, T/C [18]: 72.1%; viability, T/C [22]: 57%; viability, T/C [23]: 68.9%; viability, T/C [24]: 63.9%; viability, T/C [25]: 5.73%; viability, T/C [26]: 5.87%; viability, T/C [27]: 2.84%; viability, T/C [28]: 1.09%; viability, T/C [29]: 3.05%; viability, T/C [30]: 4.37%
2 | 254 nM | 405 nM | 361 nM | 80.4 nM | < 3.16 nM | CC1COCCN1c1cc(-c2ccnn2C)c2ccnc(-c3ccn[nH]3)c2n1 (stereo not given) + Cc1cncc(-c2nc(NCCc3c[nH]c4ccccc34)c3ncn(C(C)C)c3n2)c1 | 93.6% | 97.8% | 39.9% | 12.7% | 74.9% | 85.6% | 60.6% | 11.1% | 85.5% | 71.4% | 55.6% | 10.7% | 63% | 28.6% | 50.5% | viability, T/C (second compound 0.1 µM, first compound 0.00316 µM): 83.7%; viability, T/C (second compound 0.1 µM, first compound 0.01 µM): 96.2%; viability, T/C (second compound 0.316 µM, first compound 0.00316 µM): 91.3%; viability, T/C (second compound 0.316 µM, first compound 0.01 µM): 91.1%; viability, T/C (second compound 1 µM, first compound 0.00316 µM): 77.2%; viability, T/C (second compound 1 µM, first compound 0.01 µM): 79.9%; viability, T/C (second compound 3.16 µM, first compound 0.00316 µM): 75.6%; viability, T/C (second compound 3.16 µM, first compound 0.01 µM): 77.2%; viability, T/C [22]: 9.55%; viability, T/C (second compound 10 µM, first compound 0.00316 µM): 3.1%; viability, T/C (second compound 10 µM, first compound 0.01 µM): 4.56%; viability, T/C [25]: 3.12%; viability, T/C [26]: 6.41%; viability, T/C [27]: 2.62%; viability, T/C [28]: 1.62%
3 | > 10000 nM | 9440 nM | 6090 nM | 2410 nM | < 31.6 nM | COc1ccc([C@@H](O)c2cc(-c3ncnc4cc(N5CCOCC5)ccc34)c(F)cc2Cl)nn1 + Cc1cncc(-c2nc(NCCc3c[nH]c4ccccc34)c3ncn(C(C)C)c3n2)c1 | 101% | 90.6% | 93.7% | 83.8% | 97.1% | 88.6% | 77.2% | 86.8% | 90.5% | 94.6% | 79.9% | 74.5% | 79.5% | 85.6% | 67.2% | viability, T/C [5]: 76.7%; viability, T/C [6]: 50.9%; viability, T/C [11]: 74.5%; viability, T/C [12]: 47.8%; viability, T/C [17]: 69.1%; viability, T/C [18]: 37.6%; viability, T/C [22]: 54.7%; viability, T/C [23]: 52.6%; viability, T/C [24]: 27.9%; viability, T/C [25]: 6.06%; viability, T/C [26]: 3.37%; viability, T/C [27]: 1.79%; viability, T/C [28]: 0.4%; viability, T/C [29]: 6.5%; viability, T/C [30]: 9.38%
